Assay [1] addresses Delta-type opioid receptor (Homo sapiens) (UniProt P41143). In words: Antagonist activity at human cloned delta opioid receptor expressed in CHO cells assessed as inhibition of DPDPE-stimulated [35S]GTPgammaS binding. The format is functional, cell-based. (GTPγS resists hydrolysis and so accumulates on activated G proteins.)
For assay [2], the target named is Kappa-type opioid receptor (Homo sapiens) (UniProt P41145). As to the kind of experiment: Antagonist activity at human cloned kappa opioid receptor expressed in CHO cells assessed as inhibition of U69593-stimulated [35S]GTPgammaS binding. The format is functional, cell-based.
Assay [3] deals with Mu-type opioid receptor (Homo sapiens) (UniProt P35372). In words: Antagonist activity at human cloned mu opioid receptor expressed in CHO cells assessed as inhibition of DAMGO-stimulated [35S]GTPgammaS binding. The class given is functional, cell-based.
For assay [4], the species on record is Homo sapiens. As to the kind of experiment: Ratio of Ke for human cloned mu opioid receptor to Ke for human cloned kappa opioid receptor.
Assay [5] is filed under the species Homo sapiens. As to the kind of experiment: Ratio of Ke for human cloned delta opioid receptor to Ke for human cloned kappa opioid receptor.
The target in assay [6] is Kappa-type opioid receptor (Homo sapiens) (UniProt P41145). As to the kind of experiment: Ratio of compound Ke to JDTic Ke for human cloned kappa opioid receptor expressed in CHO cells. The class given is cell-based.
Assay [7] concerns the target Mu-type opioid receptor (Homo sapiens) (UniProt P35372). As to the kind of experiment: Ratio of JDTic Ke to compound Ke for human cloned mu opioid receptor expressed in CHO cells. The class given is cell-based.

In ChEMBL document CHEMBL1154733, “Synthesis and in vitro opioid receptor functional antagonism of methyl-substituted analogues of (3R)-7-hydroxy-N-[(1S)-1-{[(3R,4R)-4-(3-hydroxyphenyl)-3,4-dimethyl-1-piperidinyl]methyl}-2-methylpropyl]-1,2,3,4-tetrahydro-3-isoquinolinecarboxamide (JDTic)” (J Med Chem, 2009) one finds Ke and Ratio Ke data, which are given here for 17 compounds.

Chain of Delta-type opioid receptor (Homo sapiens) (P41143 whole entry): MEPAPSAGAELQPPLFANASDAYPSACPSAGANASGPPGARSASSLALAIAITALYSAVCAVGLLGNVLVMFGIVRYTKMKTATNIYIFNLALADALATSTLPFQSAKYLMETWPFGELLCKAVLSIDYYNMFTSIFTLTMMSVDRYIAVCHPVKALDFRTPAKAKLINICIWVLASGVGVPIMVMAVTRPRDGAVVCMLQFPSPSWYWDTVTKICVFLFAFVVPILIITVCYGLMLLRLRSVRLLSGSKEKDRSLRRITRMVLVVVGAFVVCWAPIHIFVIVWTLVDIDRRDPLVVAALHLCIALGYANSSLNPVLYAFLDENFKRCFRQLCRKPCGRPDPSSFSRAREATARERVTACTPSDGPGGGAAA
Chain of Kappa-type opioid receptor (Homo sapiens) (P41145 whole entry): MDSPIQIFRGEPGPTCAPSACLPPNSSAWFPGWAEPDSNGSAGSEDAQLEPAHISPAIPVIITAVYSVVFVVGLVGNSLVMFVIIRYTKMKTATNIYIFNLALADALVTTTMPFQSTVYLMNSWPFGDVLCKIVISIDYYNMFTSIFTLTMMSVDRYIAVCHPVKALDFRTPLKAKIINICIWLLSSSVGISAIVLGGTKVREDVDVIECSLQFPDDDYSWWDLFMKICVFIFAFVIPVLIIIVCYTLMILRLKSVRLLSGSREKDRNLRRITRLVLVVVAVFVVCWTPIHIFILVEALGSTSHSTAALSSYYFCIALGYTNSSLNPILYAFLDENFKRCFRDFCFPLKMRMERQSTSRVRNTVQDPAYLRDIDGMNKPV
Chain of Mu-type opioid receptor (Homo sapiens) (P35372 whole entry): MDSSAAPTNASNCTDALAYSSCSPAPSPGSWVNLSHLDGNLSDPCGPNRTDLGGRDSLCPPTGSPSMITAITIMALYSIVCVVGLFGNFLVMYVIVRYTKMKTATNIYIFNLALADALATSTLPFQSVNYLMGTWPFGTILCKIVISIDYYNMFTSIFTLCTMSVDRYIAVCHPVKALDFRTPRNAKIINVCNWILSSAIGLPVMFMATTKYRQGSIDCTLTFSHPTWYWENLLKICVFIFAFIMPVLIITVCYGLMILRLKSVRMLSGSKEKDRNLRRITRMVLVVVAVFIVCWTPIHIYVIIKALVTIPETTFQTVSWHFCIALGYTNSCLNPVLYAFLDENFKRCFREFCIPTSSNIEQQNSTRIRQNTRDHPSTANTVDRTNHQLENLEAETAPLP

For `CC[C@H](C)[C@@H](CN1CC[C@@](C)(c2cccc(OC)c2)[C@@H](C)C1)NC(=O)[C@@]1(C)Cc2ccc(O)cc2CN1`, the results for the Ke in assay [1] and in assay [2] were 2100 nM and 0.52 nM, respectively.

As to `CC(C)[C@@H](CN1CC[C@@](C)(c2cccc(O)c2)[C@@H](C)C1)NC(=O)[C@@]1(C)Cc2ccc(O)cc2CN1`, the Ke stood at 3.6 nM in assay [3], 854 nM in assay [1] and 0.03 nM in assay [2]. Also, the values for the Ratio Ke in the assay filed under Homo sapiens [4] and in the assay listed under Homo sapiens [5] were 120 and 28500, respectively.

As for `CC[C@H](C)[C@@H](CN1CC[C@@](C)(c2cccc(O)c2)[C@@H](C)C1)NC(=O)[C@@]1(C)Cc2ccc(OC)cc2CN1`, the Ke in assay [3] is 17.5 nM; in assay [1], 18.7 nM; in assay [2], 3.5 nM. Besides, the Ratio Ke in the assay listed under Homo sapiens [4] and in the assay filed under Homo sapiens [5] was 5 in each case.

As for `COc1cccc([C@]2(C)CCN(C[C@@H](NC(=O)[C@H]3Cc4ccc(O)cc4CN3)C(C)C)C[C@@H]2C)c1`, the figures for the Ke in assay [3], in assay [1] and in assay [2] were 24 nM, 21.2 nM and 0.037 nM, respectively. Further, the Ratio Ke worked out at 649 in the assay filed under Homo sapiens [4], 573 in the assay filed under Homo sapiens [5] and 2 in assay [6].

With `CC[C@H](C)[C@@H](CN1CC[C@@](C)(c2cccc(O)c2)[C@@H](C)C1)NC(=O)[C@H]1Cc2ccc(O)cc2CN1C`, the figures for the Ke in assay [3], in assay [1] and in assay [2] were 7.2 nM, 132 nM and 0.11 nM, respectively. The Ratio Ke in the assay filed under Homo sapiens [4] was 66; in the assay filed under Homo sapiens [5] it was 1200.

Regarding `CC[C@H](C)[C@@H](CN1CC[C@@](C)(c2cccc(OC)c2)[C@@H](C)C1)NC(=O)[C@H]1Cc2ccc(O)cc2CN1C`, the Ke in assay [3] was 360 nM; in assay [1], above 10000 nM; in assay [2], 2.03 nM. Also, the Ratio Ke in the assay filed under Homo sapiens [4] was 180.

Turning to `CC(C)[C@@H](CN1CC[C@@](C)(c2cccc(O)c2)[C@@H](C)C1)NC(=O)[C@H]1Cc2ccc(O)cc2CN1C`, the Ke in assay [3] was found to be 210 nM; in assay [1], 491 nM; in assay [2] it was 0.16 nM. Further, the Ratio Ke in the assay filed under Homo sapiens [4] stood at 1310; in the assay filed under Homo sapiens [5] it was 3070.

In the case of `CC[C@H](C)[C@@H](CN1CC[C@@](C)(c2cccc(O)c2)[C@@H](C)C1)NC(=O)[C@H]1Cc2ccc(O)cc2CN1`, the Ratio Ke worked out at 100 in the assay filed under Homo sapiens [4], 800 in the assay listed under Homo sapiens [5] and 8 in assay [7].

Consider `COc1cccc([C@]2(C)CCN(C[C@@H](NC(=O)[C@@]3(C)Cc4ccc(O)cc4CN3)C(C)C)C[C@@H]2C)c1`, for which the Ke in assay [1] was determined as 2200 nM; in assay [2], 0.26 nM.

As to `COc1ccc2c(c1)CN[C@@](C)(C(=O)N[C@H](CN1CC[C@@](C)(c3cccc(O)c3)[C@@H](C)C1)C(C)C)C2`, the Ke in assay [3] turned out to be 3.8 nM; in assay [1], 36.8 nM; in assay [2] it was 0.93 nM. The Ratio Ke in the assay filed under Homo sapiens [4] stood at 4; in the assay listed under Homo sapiens [5], 40.

`COc1ccc2c(c1)CN[C@@H](C(=O)N[C@H](CN1CC[C@@](C)(c3cccc(O)c3)[C@@H](C)C1)C(C)C)C2`: the Ratio Ke in the assay filed under Homo sapiens [4] came to 857; in the assay listed under Homo sapiens [5], 1970; in assay [6] it was 3.

In the case of `COc1cccc([C@]2(C)CCN(C[C@@H](NC(=O)[C@H]3Cc4ccc(O)cc4CN3C)C(C)C)C[C@@H]2C)c1`, the Ke was 880 nM in assay [3], 2300 nM in assay [1] and 4.3 nM in assay [2]. In addition, the Ratio Ke in the assay listed under Homo sapiens [4] turned out to be 204; in the assay listed under Homo sapiens [5], 535.

In the case of `CC(C)[C@@H](CN1CC[C@@](C)(c2cccc(O)c2)[C@@H](C)C1)NC(=O)[C@H]1Cc2ccc(O)cc2CN1`, the Ratio Ke in the assay filed under Homo sapiens [4] came out at 1260; in the assay listed under Homo sapiens [5] it was 3830.

For the compound `COc1ccc2c(c1)CN(C)[C@@](C)(C(=O)N[C@H](CN1CC[C@@](C)(c3cccc(O)c3)[C@@H](C)C1)C(C)C)C2`, the Ke in assay [3] worked out at 7 nM; in assay [2], 2.2 nM.

Turning to `CC[C@H](C)[C@@H](CN1CC[C@@](C)(c2cccc(OC)c2)[C@@H](C)C1)NC(=O)[C@H]1Cc2ccc(O)cc2CN1`, the Ke was 5.1 nM in assay [3] and 0.96 nM in assay [2].

`CC[C@H](C)[C@@H](CN1CC[C@@](C)(c2cccc(O)c2)[C@@H](C)C1)NC(=O)[C@@]1(C)Cc2ccc(O)cc2CN1`: the Ke was determined as 8.7 nM in assay [3] and 0.11 nM in assay [2].

For `COc1cccc([C@]2(C)CCN(C[C@@H](NC(=O)[C@@]3(C)Cc4ccc(OC)cc4CN3)C(C)C)C[C@@H]2C)c1`, the Ke in assay [1] is above 10000 nM; in assay [2] it was 15.2 nM.
